Values of other authors in patent US20060258633A1, “Amorphous tegaserod maleate” (priority 2005, published 2006).

Conditions: white to off-white crystalline powder

solubility in ethanol (ethanol): slightly soluble
solubility in water (water): very slightly soluble
SMILES: CCCCCNC(=N)N/N=C/c1c[nH]c2ccc(OC)cc12.O=C(O)/C=C\C(=O)O [Tegaserod maleate, 3-(5-methoxy-1H-indole-3-ylmethylene)-N-pentylcarbazimidamide hydrogen meleate]
